We go through 13 compounds from patent US20140011676A1, “1, 8 -DIAZASPIRO [4.5] DECANE- 2, 4 -DIONE DERIVATIVES USEFUL AS PESTICIDES” (SYNGENTA PARTICIPATIONS AG, priority 2010, published 2014).

In general, mortality refers to the percentage killed. By melting point is commonly meant the temperature, or range, at which the solid turns liquid.

Where two headings read alike, the source gives them in different places.

The test system of data set [1] is Tetranychus urticae (two-spotted spider mite). Kind of data set: whole plant or invertebrate. The settings on record: foliar, 192 h, read-out: activity (egg, larval and adult mortality) against Tetranychus urticae.
Data set [2] has as its system Myzus persicae (green peach aphid). The settings on record: foliar, 144 h, read-out: activity (mortality) against Myzus persicae.
Data set [3] concerns cabbage plants. The settings on record: in vivo, 6 days, 200 ppm.
The test system of data set [4] is Myzus persicae (green peach aphid). Put plainly: Activity against Myzus persicae on cabbage plants, feeding/residual contact activity, spray chamber. In kind it is in vivo. The settings on record: 144 h, 6 days after treatment.
Data set [5] deals with Thrips tabaci (onion thrips). The settings on record: foliar, 144 h, read-out: activity (mortality) against Thrips tabaci.
The subject of data set [6] is Myzus persicae (green peach aphid). Put plainly: Activity against Myzus persicae, mixed population, systemic/feeding activity, curative (pea seedlings). The conditions noted are these: 144 h, read-out: activity (mortality) against Myzus persicae, systemic.

Take `CON1CCC2(CC1)C(=O)C(Cl)(c1cc(C)c(C)cc1Cl)C(=O)N2C` (stereo not shown) [Compound P1.1, 3-Chloro-3-(2-chloro-4,5-dimethyl-phenyl)-8-methoxy-1-methyl-1,8-diaza-spiro[4.5]decane-2,4-dione]: the mortality at 400 ppm in data set [1] and in data set [2] was greater than 80% throughout.
Turning to `CON1CCC2(CC1)C(=O)C(Cl)(c1cc(Br)c(C)cc1C)C(=O)N2C` (stereo not shown) [Compound P1.2], the mortality at 400 ppm in data set [2] and in data set [5] was greater than 80% throughout. Besides, the “damage to cabbage plants (phytotoxicity)” value in data set [3] is recorded as no more than 10%. The mortality at 200 ppm in data set [4] was no less than 80%.
For the compound `CON1CCC2(CC1)C(=O)C(Cl)(c1c(C)cc(Br)cc1C)C(=O)N2C` (stereo not shown) [Compound P1.3], the mortality at 400 ppm in data set [2] and in data set [6] was greater than 80% throughout. Further, the “damage to cabbage plants (phytotoxicity)” value in data set [3] is listed as no more than 10%. Besides, the mortality at 200 ppm in data set [4] was no less than 80%.
As for `CON1CCC2(CC1)C(=O)C(Cl)(c1c(C)cc(C)cc1C)C(=O)N2C` (stereo not shown) [Compound P1.4], the mortality at 400 ppm in data set [2], in data set [6] and in data set [5] was greater than 80% throughout. Also, in data set [3], the “damage to cabbage plants (phytotoxicity)” value is no more than 10%. Further, the mortality at 200 ppm in data set [4] was no less than 80%.
As for `CON1CCC2(CC1)C(=O)C(Cl)(c1cc(C)ccc1C)C(=O)N2C` (stereo not shown) [Compound P1.5, 3-Chloro-3-(2,5-dimethyl-phenyl)-8-methoxy-1-methyl-1,8-diaza-spiro[4.5]decane-2,4-dione], the “damage to cabbage plants (phytotoxicity)” value in data set [3] is no more than 10%. The compound further showed a mortality at 200 ppm in data set [4] of no less than 80%.
For `CON1CCC2(CC1)C(=O)C(Cl)(c1cc(C)c(C)cc1C)C(=O)N2CC1CC1` (stereo not shown) [Compound P1.6], in that order: no more than 10% and no less than 80%.
Consider `CON1CCC2(CC1)C(=O)C(Cl)(c1c(C)cccc1C)C(=O)N2C` (stereo not shown) [Compound P1.7], for which the mortality at 400 ppm in data set [6] was greater than 80%. The “damage to cabbage plants (phytotoxicity)” value in data set [3] is listed as no more than 10%. The mortality at 200 ppm in data set [4] is no less than 80%.
For the compound `CON1CCC2(CC1)C(=O)C(Cl)(c1c(C)cc(C)cc1C)C(=O)N2CC1CCCO1` (stereo not shown) [Compound P1.8], the “damage to cabbage plants (phytotoxicity)” value in data set [3] is given as no more than 10%. Also, the mortality at 200 ppm in data set [4] is no less than 80%.
For the compound `COc1cc(Cl)cc(C)c1C1(Cl)C(=O)N(C)C2(CCN(OC)CC2)C1=O` (stereo not shown) [Compound P1.10], the melting point lay in the range of 115 to 117 °C.
Turning to `CCc1cc(Cl)cc(C)c1C1(Cl)C(=O)N(C)C2(CCN(OC)CC2)C1=O` (stereo not shown) [Compound P1.11], in data set [2], the mortality at 400 ppm was greater than 80%. Moreover, in data set [3], the “damage to cabbage plants (phytotoxicity)” value is reported as no more than 10%. Moreover, in data set [4], the mortality at 200 ppm is no less than 80%.
Take `CON1CCC2(CC1)C(=O)C(Cl)(c1c(C)ccc(-c3ccc(Cl)cc3)c1C)C(=O)N2C` (stereo not shown) [Compound P1.12]: the mortality at 400 ppm in data set [2] is greater than 80%. The “damage to cabbage plants (phytotoxicity)” value in data set [3] is recorded as no more than 10%. This compound also gave a mortality at 200 ppm in data set [4] of no less than 80%.
For `CON1CCC2(CC1)C(=O)C(c1c(C)cc(C)cc1C)([N+](=O)[O-])C(=O)N2C` (stereo not shown) [Compound P1.13, 8-Methoxy-1-methyl-3-nitro-3-(2,4,6-trimethyl-phenyl)-1,8-diaza-spiro[4.5]decane-2,4-dione], the mortality at 400 ppm in data set [2] was greater than 80%. Also, in data set [3], the “damage to cabbage plants (phytotoxicity)” value is no more than 10%. For the same compound, the mortality at 200 ppm in data set [4] is no less than 80%.
For `COCCN1C(=O)C(Cl)(c2c(C)cc(Cl)cc2C)C(=O)C12CCN(OC)CC2` (stereo not shown) [Compound P1.14], in that order: greater than 80%, no more than 10% and no less than 80%.
